Literature values, collected in patent US20250135196A1, “COMPOSITIONS, SYSTEMS, AND METHODS FOR TREATING CANCER USING TUMOR TREATING FIELDS WITH INHIBITORS OF MIF, MICA, AND/OR MICB” (Brown University, priority 2023, published 2025).

Experiments:
MIF-CD74 = biological target: T1, MIF-CD74 (Homo sapiens, UniProt P14174); conditions: binding assay MIF-CD74; for Kd: read-out: Kd (BA)
T1 sequence (P14174 2-115 limits assumed): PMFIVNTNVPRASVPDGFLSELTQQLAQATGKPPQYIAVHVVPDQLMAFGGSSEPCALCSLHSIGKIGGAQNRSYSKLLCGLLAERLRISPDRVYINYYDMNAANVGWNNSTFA

MIF = biological target: T2, MIF (Homo sapiens, UniProt P14174); conditions: tautomerase assay; for IC50 / Ki: literature values, reference number in brackets in cell; for fold more potent than ISO-1 (TA): relative to ISO-1; for Ki: read-out: Ki (TA)
T2 sequence (P14174 2-115 limits assumed): T1 sequence (P14174 2-115 limits assumed)

SMILES: COC(=O)CC1CC(c2ccc(O)cc2)=NO1 (racemic) [ISO-1]
- Max. inhibition (BA) (MIF-CD74; maximal inhibition): 40%

SMILES: Ic1cc(-c2ccccc2)ncn1 [4-IPP, 4-iodo-6-phenylpyrimidine]
- IC50 (MIF): 0.2 to 0.5 µM

SMILES: O=C(CC1CC(c2ccc(F)cc2F)=NO1)N1CCOCC1 (stereo not shown) [CPS1-1306]
- fold more potent than ISO-1 (TA) (MIF): 100-fold more potent than ISO-1 [35] (TA)

SMILES: CN(C(=O)CC1CC(c2ccc(Cl)cc2)=NO1)C1CCCCC1 (stereo not shown) [CPSI-2705]
- fold more potent than ISO-1 (TA) (MIF): 2-10-fold more potent than ISO-1 (35) (TA)

SMILES: O=C(O)c1cccc(Oc2cc(-c3cn(-c4ccc(O)c(F)c4)nn3)nc3ccccc23)c1 [Dziedzic-3bb]
- Kd (MIF-CD74): 0.071 µM
- Ki (MIF): 0.057 µM

SMILES: COC(=O)CC1CC(c2ccc(O)c(F)c2)=NO1 (stereo not shown) [ISO-66]
- IC50 (MIF): 1.5 µM

SMILES: COc1cccc(Cn2cc(-c3ccc(O)cc3)nn2)c1OC [Jorgensen-3g]
- IC50 (MIF-CD74): 0.9 µM

SMILES: COC(=O)c1cccc(Cn2cc(-c3ccc(O)cc3)nn2)c1 [Jorgensen-3h]
- IC50 (MIF-CD74): 1 µM

SMILES: COc1ccc(N2Cc3ccc(O)cc3OC2=O)cc1 [NVS-2]
- Kd (MIF-CD74): 0.055 µM
- IC50 (MIF): 0.02 µM
- Ki (MIF): 0.027 µM

SMILES: Cc1ccccc1-c1cc2ccccc2c(=O)o1 [SCD-19]
- inhibition (TA) (MIF; at concentration of 100 μM): 100% inhibition at concentration of 100 μM [37] (TA)
